According to patent US20130231377A1, “PACTAMYCIN ANALOGS AND METHODS OF USE” (State of Oregon acting by and through the state Board of …, priority 2010, published 2013):
Like-named read-outs stand apart in the source and are kept apart here. Values belong to the compound of their own block, whether it stands above or below them.

Columns and labels:
[1] = tested on: chloroquine-resistant and MDR clone Dd2 of P. falciparum; assay: Antimalarial activity assay, SYBR Green I fluorescence-based method; format: cell-based, Plasmodium falciparum; details: for IC50: read-out: Antimalarial IC50 (Dd2); for IC90: read-out: Antimalarial IC90 (Dd2)
Protocol: (§1) An antimalarial activity assay was carried out at the Oregon Translational Research and Drug Development Institute (OTRADI). Two strains of P. falciparum were used. The chloroquine-sensitive clone D6, and chloroquine-resistant and MDR clone Dd2 was obtained from the Malaria Research and Reference Reagent Resource Center (MR4) (Manassas, Va.). The parasites were cultured according to the method of Trager and Jensen (Trager and Jensen, Science, 1976, 193:673-675), with minor modifications. The cultures were maintained in human erythrocytes (Lampire Biological Laboratories, Pipersville, Pa.), suspended at 2% hematocrit in RPMI 1640 (Sigma) containing 0.5% Albumax (Invitrogen), […] hypoxanthine (Lancaster), and 50 μg/L gentamicin (Invitrogen), and incubated at 37° C. under a gas mixture of 5% O2, 5% CO2, and 90% N2. In vitro antimalarial activity was determined by a SYBR Green I fluorescence-based method described previously by Smilkstein et al. (Smilkstein et al., Antimicrob. Agents Chemother., 2004, 48:1803-1806). Frozen stock solutions of each test drug (1 mM in DMSO) were thawed, warmed to 37° C., and mixed thoroughly prior to use. Drug solutions were serially diluted with culture medium, and distributed to asynchronous parasite cultures on 96-well plates in quadruplicate in a total volume of 100 μL to achieve 0.2% parasitemia with a 2% hematocrit in a total volume of 100 μL. Automated pipeting and dilution was carried using programmable Precision XS (Bio-Tek, Winooski, Vt.) and Sciclone ALH3000 (Caliper, Hopkinton, Mass.) robotic stations. The plates then were incubated for 72 hours at temperature and gas conditions described above. After incubation, 100 μL of lysis buffer with SYBR Green I was added to each well. The plates were incubated at room temperature for 1 h and then placed in a 96-well fluorescence plate reader (Synergy4, BioTek, Winooski, Vt.) with excitation and emission wavelength at 485 nm and 528 nm, respectively, for measurement of fluorescence. The 50% inhibitory concentration (IC50) was determined by non-linear regression analysis of logistic dose-response curves (GraphPad Prism software).

[2] = tested on: chloroquine-sensitive clone D6 of P. falciparum; assay: as above; format: cell-based, Plasmodium falciparum; details: for IC50: read-out: Antimalarial IC50 (D6); for IC90: read-out: Antimalarial IC90 (D6)
Protocol: as §1

[3] = tested on: Pseudomonas aeruginosa; assay: Antibacterial agar diffusion assay (Example 2); format: cell-based
Protocol: (§2) Antibacterial activity of pactamycin and its analogues was determined by an agar diffusion assay. E. coli, Pseudomonas aeruginosa, Mycobacterium smegmatis, and Staphylococcus aureus were streaked on nutrient agar (Difco) and grown overnight at 37° C. Colonies were transferred to nutrient broth and incubated at 37° C. for 24 hours. Turbidity of the inoculum was measured to a proper density at 600 nm (BioRad, SmartSpec 3000). For plate preparation, inoculum (500 μL) was mixed thoroughly with warm nutrient agar (50 mL) and poured to 25 mL square plates. The agar plates were allowed to solidify and dry for 30 minutes before assay. Sterile blank paper disks (Becton-Dickinson) were impregnated with pactamycin and its analogues (20 μL) at various concentrations and dried at room temperature. The disks were placed onto inoculated agar plates and incubated at 37° C. for 24 hours. In order to produce a contrast background of the inhibition zone, 0.25% MTT developing dye (1 mL) was added over the plates.

[4] = tested on: Staphylococcus aureus; assay: Antibacterial agar diffusion assay (Example 2); format: cell-based
Protocol: as §2

[5] = tested on: Mycobacterium smegmatis; assay: Antibacterial agar diffusion assay (Example 2); format: cell-based
Protocol: as §2

[6] = tested on: E. coli; assay: Antibacterial agar diffusion assay (Example 2); format: cell-based, Escherichia coli
Protocol: as §2

[7] = tested on: Gram-positive and Gram-negative bacteria; assay: Antibacterial agar diffusion and micro-dilution assays, all tested strains (Example 1); format: cell-based, S. aureus, B. subtilis, P. aeruginosa, E. coli; details: for antibacterial activity in agar diffusion and micro-dilution assays (in words): at the concentrations used; for IC50: consistently higher than pactamycin, mostly >1 mM, read-out: IC50 against all tested bacterial strains
Protocol: The antibacterial activity of pactamycin and its analogs was determined by agar diffusion and micro-dilution assays. E. coli, P. aeruginosa, B. subtilis or M. smegmatis, and S. aureus were streaked on nutrient agar (Difco or Beckton-Dickinson) and grown overnight at 37° C. Colonies were transferred to nutrient broth and incubated at 37° C. for 24 hours. Turbidity of the inoculum was measured to a proper density at 600 nm (BioRad, SmartSpec 3000). For plate preparation, inoculum (500 μL) was mixed thoroughly with warm nutrient agar (50 mL) and poured to 25 mL square plates. The agar plates were allowed to solidify and dry for 30 min before assay. Sterile blank paper disks (Becton-Dickinson) were impregnated with pactamycin and its analogs (20 μL) at various concentrations and dried at room temperature. The disks were placed onto inoculated agar plates and incubated at 37° C. for 24 hours. In order to produce a contrast background of the inhibition zone, 0.25% MTT developing dye (1 mL) was added over the plates.
Micro-dilution assays were performed in 96-well plates. The compounds were serially diluted and added to the bacterial suspension at final concentrations of 1 mM-10 nM, or 0.5 mM-10 nM. After incubation at 37° C. for 24 hours, 0.25% MTT developing dye (50 μL) was added. Each assay was done in triplicate.

[8] = Cytotoxicity assay (WST-8) against HCT116 cells; format: cell-based; details: human, HCT116 colorectal carcinoma cells, estimated
Protocol: HCT116 (colorectal carcinoma) cells were seeded onto a 96-well plate at 10,000 cells per well. Cells were treated with either 5, 50, 500 or 5000 nM TM-025, TM-026, N-acetyl-glucosaminyl-3-aminoacetophenone or 5, 25, 50, 100 nM pactamycin in triplicate for 48 hours. For the narrow range concentration assays, cells were treated with either 0.5, 1, 2 or 4 μM TM-025; 1, 2, 3 or 5 μM TM-026; 0.5, 2, 5 or 7 μM N-acetylglucosaminyl-3-aminoacetophenone or 12.5, 25, 50, 100 nM pactamycin in triplicate for 24 or 48 hours. WST-8 [2-(2-methoxy-4-nitrophenyl)-3-[…], monosodium salt] (Dojindo, Rockville, Md.) was added to each well to give an orange-colored formazan product, which is soluble in tissue culture medium. Absorbance was measured at 450 nm. Percent of viable cells was calculated relative to the “No Treatment” and “Solvent Only” wells.

[9] = tested on: human colon cancer HT-29 cells; assay: MTT cell viability assay in HT-29 cells; format: cell-based; details: HT-29 cells, 24-hour
Protocol: The MTT assay was carried out as described by Mosmann (J. Immunol. Methods, 1983, 65:55). Briefly, human colon cancer HT-29 cells (ATCC) were seeded in 96-well plates at a density of 1.0×10^4 cells per well. The growth medium consisted of phenol red-free RPMI 1640 (Invitrogen, Carlsbad, Calif.) containing 10% fetal bovine serum (Invitrogen, Carlsbad, Calif.), glutamine (2 mM), penicillin (100 units/mL) and streptomycin (100 μg/mL). After a 24-hour incubation at 37° C. in a humidified atmosphere of 5% CO2, the medium was removed and replaced with fresh RPMI 1640 medium (with or without 10% FBS and no penicillin or streptomycin). Increasing concentrations of pactamycin, pactamycate, de-6MSA pactamycin, or de-6MSA-pactamycate dissolved in DMSO were added to cells at a volume of 0.2 mL/well. DMSO was added to control media not to exceed a final concentration of 1%. Following a 24-hour incubation, the medium was aspirated from each well and replaced with fresh RPMI medium with 10% FBS and MTT (0.5 mg/mL). […] The plate was shaken for 10 minutes before reading the absorbance at 570 nm using a microplate reader (SpectraMax 250, Molecular Devices, Sunnyvale, Calif., USA). The viability of treated cells was expressed as the percentage of control cells. […]

[10] = tested on: HT-29 human colon carcinoma cells; assay: SRB growth inhibition assay in HT-29 cells; format: cell-based
Protocol: Growth inhibition of HT-29 cells induced by the test compounds was also evaluated by the SRB assay, which is based on measuring total biomass by staining the cellular proteins with sulforhodamine B (Skehan et al., J. Natl. Cancer Inst., 1990, 82:1107). After treating the HT-29 cells with the compounds for 24 hours, the adherent cells grown in 96-well plates were fixed with 10% trichloroacetic acid and incubated for 1 hour at 4° C. The plates were washed five times with tap water, dried, and stained with SRB solution (0.4% wt/vol in 1% acetic acid) for 30 minutes at room temperature. The plates were again washed and dried before adding 10 mM Tris base to solubilize the bound stain. Optical densities (OD) were read at 564 nm in SpectraMax 250 and cell growth of treated cells was expressed as the percentage of control cells, ODtest/ODcontrol×100%.

[11] = Plasmodium falciparum, DD2, 72 h, P. falciparum Dd2, 72 hours
[12] = Plasmodium falciparum, D6, 72 h, P. falciparum D6, 72 hours
[13] = Plasmodium falciparum, DD2, 72 h
[14] = Plasmodium falciparum, D6, 72 h

SMILES: CC(=O)N[C@H]1C(Nc2cccc(C(C)=O)c2)O[C@H](CO)[C@@H](O)[C@@H]1O (stereo partly shown) [N-acetylglucosaminyl-3-aminoacetophenone, reference compound]
antimalarial activity (in words) ([1]; P. falciparum Dd2): lack of activity
antimalarial activity (in words) ([2]; P. falciparum D6): lack of activity

SMILES: CC(=O)c1cccc(N[C@H]2[C@H](N)[C@]3(NC(=O)O[C@H]3C)[C@@](C)(O)[C@@]2(O)CO)c1 [de-6MSA-pactamycate]
antibacterial activity, growth of Pseudomonas aeruginosa [3]: no antibacterial activity
antibacterial activity, growth of Staphylococcus aureus [4]: no antibacterial activity
antibacterial activity, growth of Mycobacterium smegmatis [5]: no antibacterial activity
antibacterial activity, growth of E. coli [6]: no antibacterial activity

SMILES: CC(=O)c1cccc(N[C@H]2[C@H](N)[C@](C)(NC(=O)N(C)C)[C@@](C)(O)[C@@]2(O)CO)c1 [TM-025, de-6MSA-7-demethyl-7-deoxypactamycin]
IC50 ([1]; P. falciparum Dd2, 72 hours): ~0.025 µM
IC90 ([1]; P. falciparum Dd2, 72 hours): ~0.076 µM
IC50 [1, 11]: 0.025 to 0.03 µM
IC90 [1, 11]: 0.062 to 0.077 µM
IC50 ([2]; P. falciparum D6, 72 hours): ~0.025 µM
IC90 ([2]; P. falciparum D6, 72 hours): ~0.062 µM
IC50 [2, 12]: 0.025 to 0.03 µM
IC90 [2, 12]: 0.062 to 0.077 µM
antibacterial activity in agar diffusion and micro-dilution assays (in words) [7]: neither TM-025 nor TM-026 showed any significant activity
IC50 [7]: > 1000 µM
IC50 [8]: ~1.3 µM

SMILES: CC(=O)c1cccc(N[C@H]2[C@H](N)[C@]3(NC(=O)O[C@H]3C)[C@@](C)(O)[C@@]2(O)COC(=O)c2c(C)cccc2O)c1 [pactamycate, reference compound]
antibacterial activity, growth of Pseudomonas aeruginosa [3]: no antibacterial activity
antibacterial activity, growth of Staphylococcus aureus [4]: no antibacterial activity
antibacterial activity, growth of Mycobacterium smegmatis [5]: no antibacterial activity
IC50 [1, 13]: ~0.3 µM
IC90 [1, 13]: ~0.8 µM
IC50 [2, 14]: ~0.3 µM
IC90 [2, 14]: ~0.8 µM
cytotoxicity profile (MTT-based assay) [9]: reduced cytotoxicity profile
antibacterial activity, growth of E. coli [6]: no antibacterial activity
cytotoxicity profile (SRB-based assay) [10]: reduced cytotoxicity profile

Second part, led by results:

EC50 ([1]; Plasmodium falciparum, Example 2, FIG. 14, multi-drug resistant Dd2, read-out: EC50 against the Dd2 strain): 0.007 µM
SMILES: C[C@@H]1CC[C@H]2[C@@H](C)C(=O)O[C@@H]3O[C@@]4(C)CC[C@@H]1[C@]32OO4 [artemisinin, reference compound]

EC50 ([2]; Plasmodium falciparum, D6, read-out: EC50 against the D6 strain): 0.01 µM
SMILES: CCN(CC)CCCC(C)Nc1ccnc2cc(Cl)ccc12 (stereo not shown) [chloroquine, reference compound]

IC50 ([1]; P. falciparum Dd2, 72 hours): ~0.026 µM
IC90 ([1]; P. falciparum Dd2, 72 hours): ~0.077 µM
IC50 [1, 11]: 0.025 to 0.03 µM
IC90 [1, 11]: 0.062 to 0.077 µM
IC50 ([2]; P. falciparum D6, 72 hours): ~0.03 µM
IC90 ([2]; P. falciparum D6, 72 hours): ~0.063 µM
IC50 [2, 12]: 0.025 to 0.03 µM
IC90 [2, 12]: 0.062 to 0.077 µM
IC50 [7]: > 1000 µM
SMILES: CC(=O)c1cccc(N[C@H]2[C@H](N)[C@](C)(NC(=O)N(C)C)[C@@](C)(O)[C@@]2(O)COC(=O)c2c(C)cccc2O)c1 [TM-026, 7-demethyl-7-deoxypactamycin]
antibacterial activity in agar diffusion and micro-dilution assays (in words) [7]: neither TM-025 nor TM-026 showed any significant activity
IC50 [8]: ~3 µM
